Test results from ChEMBL document CHEMBL4229394 (Bioorg Med Chem Lett, 2018).

Assays:
[1] = molecular target: 5-hydroxytryptamine receptor 2C (Homo sapiens) (UniProt P28335); assay: Inhibition of 5-HT2C receptor (unknown origin) by radio ligand displacement assay relative to control; conditions: concentration not given here
[2] = molecular target: 5-hydroxytryptamine receptor 2B (Homo sapiens) (UniProt P41595); assay: Inhibition of 5-HT2B receptor (unknown origin) by radio ligand displacement assay relative to control; conditions: concentration not given here
[3] = molecular target: 5-hydroxytryptamine receptor 2A (Homo sapiens) (UniProt P28223); assay: Inhibition of 5-HT2A receptor (unknown origin) by radio ligand displacement assay relative to control; conditions: concentration not given here
[4] = molecular target: 5-hydroxytryptamine receptor 1E (Homo sapiens) (UniProt P28566); assay: Inhibition of 5-HT1E receptor (unknown origin) by radio ligand displacement assay relative to control; conditions: concentration not given here
[5] = molecular target: 5-hydroxytryptamine receptor 1D (Homo sapiens) (UniProt P28221); assay: Inhibition of 5-HT1D receptor (unknown origin) by radio ligand displacement assay relative to control; conditions: concentration not given here
[6] = molecular target: Alpha-1D adrenergic receptor (Homo sapiens) (UniProt P25100); assay: Inhibition of alpha-1D adrenergic receptor (unknown origin) by radio ligand displacement assay relative to control; conditions: concentration not given here
[7] = molecular target: 5-hydroxytryptamine receptor 1B (Homo sapiens) (UniProt P28222); assay: Inhibition of 5-HT1B receptor (unknown origin) by radio ligand displacement assay relative to control; conditions: concentration not given here
[8] = molecular target: 5-hydroxytryptamine receptor 1A (Homo sapiens) (UniProt P08908); assay: Inhibition of 5-HT1A receptor (unknown origin) by radio ligand displacement assay relative to control; conditions: concentration not given here
[9] = molecular target: Muscarinic acetylcholine receptor M5 (Homo sapiens) (UniProt P08912); assay: Inhibition of M5 receptor (unknown origin) by radio ligand displacement assay relative to control; conditions: concentration not given here
[10] = molecular target: Muscarinic acetylcholine receptor M4 (Homo sapiens) (UniProt P08173); assay: Inhibition of M4 receptor (unknown origin) by radio ligand displacement assay relative to control; conditions: concentration not given here
[11] = molecular target: Muscarinic acetylcholine receptor M3 (Homo sapiens) (UniProt P20309); assay: Inhibition of M3 receptor (unknown origin) by radio ligand displacement assay relative to control; conditions: concentration not given here
[12] = molecular target: Muscarinic acetylcholine receptor M2 (Homo sapiens) (UniProt P08172); assay: Inhibition of M2 receptor (unknown origin) by radio ligand displacement assay relative to control; conditions: concentration not given here
[13] = molecular target: Muscarinic acetylcholine receptor M1 (Homo sapiens) (UniProt P11229); assay: Inhibition of M1 receptor (unknown origin) by radio ligand displacement assay relative to control; conditions: concentration not given here
[14] = molecular target: Histamine H4 receptor (Homo sapiens) (UniProt Q9H3N8); assay: Inhibition of H4 receptor (unknown origin) by radio ligand displacement assay relative to control; conditions: concentration not given here
[15] = molecular target: Histamine H3 receptor (Homo sapiens) (UniProt Q9Y5N1); assay: Inhibition of H3 receptor (unknown origin) by radio ligand displacement assay relative to control; conditions: concentration not given here
[16] = molecular target: Histamine H2 receptor (Homo sapiens) (UniProt P25021); assay: Inhibition of H2 receptor (unknown origin) by radio ligand displacement assay relative to control; conditions: concentration not given here
[17] = molecular target: Histamine H1 receptor (Homo sapiens) (UniProt P35367); assay: Inhibition of H1 receptor (unknown origin) by radio ligand displacement assay relative to control; conditions: concentration not given here
[18] = molecular target: Mu-type opioid receptor (Homo sapiens) (UniProt P35372); assay: Inhibition of MOR (unknown origin) by radio ligand displacement assay relative to control; conditions: concentration not given here
[19] = molecular target: Kappa-type opioid receptor (Homo sapiens) (UniProt P41145); assay: Inhibition of KOR (unknown origin) by radio ligand displacement assay relative to control; conditions: concentration not given here
[20] = molecular target: Delta-type opioid receptor (Homo sapiens) (UniProt P41143); assay: Inhibition of DOR (unknown origin) by radio ligand displacement assay relative to control; conditions: concentration not given here
[21] = molecular target: D(1B) dopamine receptor (Homo sapiens) (UniProt P21918); assay: Inhibition of D5 receptor (unknown origin) by radio ligand displacement assay relative to control; conditions: concentration not given here
[22] = molecular target: D(4) dopamine receptor (Homo sapiens) (UniProt P21917); assay: Inhibition of D4 receptor (unknown origin) by radio ligand displacement assay relative to control; conditions: concentration not given here
[23] = molecular target: D(3) dopamine receptor (Homo sapiens) (UniProt P35462); assay: Inhibition of D3 receptor (unknown origin) by radio ligand displacement assay relative to control; conditions: concentration not given here
[24] = molecular target: D(2) dopamine receptor (Homo sapiens) (UniProt P14416); assay: Inhibition of D2 receptor (unknown origin) by radio ligand displacement assay relative to control; conditions: concentration not given here
[25] = molecular target: D(1A) dopamine receptor (Homo sapiens) (UniProt P21728); assay: Inhibition of D1 receptor (unknown origin) by radio ligand displacement assay relative to control; conditions: concentration not given here
[26] = molecular target: Sodium-dependent serotonin transporter (Homo sapiens) (UniProt P31645); assay: Inhibition of SERT (unknown origin) by radio ligand displacement assay relative to control; conditions: concentration not given here
[27] = molecular target: Sodium-dependent noradrenaline transporter (Homo sapiens) (UniProt P23975); assay: Inhibition of NET (unknown origin) by radio ligand displacement assay relative to control; conditions: concentration not given here
[28] = molecular target: Sodium-dependent dopamine transporter (Homo sapiens) (UniProt Q01959); assay: Inhibition of DAT (unknown origin) by radio ligand displacement assay relative to control; conditions: concentration not given here
[29] = molecular target: Beta-3 adrenergic receptor (Homo sapiens) (UniProt P13945); assay: Inhibition of beta-3 adrenergic receptor (unknown origin) by radio ligand displacement assay relative to control; conditions: concentration not given here
[30] = molecular target: Beta-2 adrenergic receptor (Homo sapiens) (UniProt P07550); assay: Inhibition of beta-2 adrenergic receptor (unknown origin) by radio ligand displacement assay relative to control; conditions: concentration not given here
[31] = molecular target: Beta-1 adrenergic receptor (Homo sapiens) (UniProt P08588); assay: Inhibition of beta-1 adrenergic receptor (unknown origin) by radio ligand displacement assay relative to control; conditions: concentration not given here
[32] = molecular target: Alpha-2A adrenergic receptor (Homo sapiens) (UniProt P08913); assay: Inhibition of alpha-2A adrenergic receptor (unknown origin) by radio ligand displacement assay relative to control; conditions: concentration not given here
[33] = molecular target: Alpha-1B adrenergic receptor (Homo sapiens) (UniProt P35368); assay: Inhibition of alpha-1B adrenergic receptor (unknown origin) by radio ligand displacement assay relative to control; conditions: concentration not given here
[34] = molecular target: Alpha-1A adrenergic receptor (Homo sapiens) (UniProt P35348); assay: Inhibition of alpha-1A adrenergic receptor (unknown origin) by radio ligand displacement assay relative to control; conditions: concentration not given here
[35] = molecular target: GABA-A receptor; alpha-1/beta-2/gamma-2 (Rattus norvegicus, UniProt P18508+P62813+P63138); assay: Agonist activity at rat GFP-fused GABA-A alpha1/beta2/gamma2 receptor expressed in human tsA201 cells at -60 mV holding potential by whole-cell voltage clamp method; type: cell-based
GABA-B receptor = GABA-B receptor (Homo sapiens, UniProt O75899+Q9UBS5); assay: Agonist activity at human GABA-B1/B2 receptor expressed in HEK293/Cre-luc cells assessed as inhibition of forskolin-stimulated cAMP accumulation after 3 hrs by luciferase reporter gene assay; type: cell-based
[36] = molecular target: 5-hydroxytryptamine receptor 3A (Homo sapiens) (UniProt P46098); assay: Inhibition of 5-HT3 receptor (unknown origin) by radio ligand displacement assay relative to control; conditions: concentration not given here
[37] = molecular target: 5-hydroxytryptamine receptor 5A (Homo sapiens) (UniProt P47898); assay: Inhibition of 5-HT5A receptor (unknown origin) by radio ligand displacement assay relative to control; conditions: concentration not given here
[38] = molecular target: 5-hydroxytryptamine receptor 6 (Homo sapiens) (UniProt P50406); assay: Inhibition of 5-HT6 receptor (unknown origin) by radio ligand displacement assay relative to control; conditions: concentration not given here
[39] = molecular target: 5-hydroxytryptamine receptor 7 (Homo sapiens) (UniProt P34969); assay: Inhibition of 5-HT7 receptor (unknown origin) by radio ligand displacement assay relative to control; conditions: concentration not given here
[40] = molecular target: Sigma non-opioid intracellular receptor 1 (Rattus norvegicus) (UniProt Q9R0C9); assay: Inhibition of rat sigma-1 receptor by radio ligand displacement assay relative to control; conditions: concentration not given here
[41] = molecular target: Sigma intracellular receptor 2 (Rattus norvegicus) (UniProt Q5U3Y7); assay: Inhibition of rat sigma-2 receptor by radio ligand displacement assay relative to control; conditions: concentration not given here
HEK293 = assay: Cytotoxicity against HEK293 cells co-expressing human GABA-B1/B2 receptor and Cre-luc plasmid at 50 to 100 uM after 3 hrs by CellTiter 96 aqueous one solution reagent based assay; type: cell-based; conditions: hek293, 3 h

Sequence of GABA-A receptor; alpha-1/beta-2/gamma-2 (P18508 whole entry, the tested form may be a part): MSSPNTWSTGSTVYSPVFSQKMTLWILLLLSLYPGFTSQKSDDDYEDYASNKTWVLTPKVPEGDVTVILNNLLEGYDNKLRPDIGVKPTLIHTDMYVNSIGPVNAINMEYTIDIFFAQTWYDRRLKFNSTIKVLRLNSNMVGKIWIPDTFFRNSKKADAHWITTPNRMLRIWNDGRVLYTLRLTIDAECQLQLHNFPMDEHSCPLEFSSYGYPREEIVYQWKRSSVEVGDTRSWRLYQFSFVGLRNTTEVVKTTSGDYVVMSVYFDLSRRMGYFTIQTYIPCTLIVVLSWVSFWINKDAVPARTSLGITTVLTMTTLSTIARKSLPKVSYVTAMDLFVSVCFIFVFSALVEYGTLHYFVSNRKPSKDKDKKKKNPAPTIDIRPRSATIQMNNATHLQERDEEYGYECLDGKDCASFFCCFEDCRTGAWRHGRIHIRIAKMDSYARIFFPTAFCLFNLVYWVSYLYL
Sequence of GABA-A receptor; alpha-1/beta-2/gamma-2 (P62813 whole entry, the tested form may be a part): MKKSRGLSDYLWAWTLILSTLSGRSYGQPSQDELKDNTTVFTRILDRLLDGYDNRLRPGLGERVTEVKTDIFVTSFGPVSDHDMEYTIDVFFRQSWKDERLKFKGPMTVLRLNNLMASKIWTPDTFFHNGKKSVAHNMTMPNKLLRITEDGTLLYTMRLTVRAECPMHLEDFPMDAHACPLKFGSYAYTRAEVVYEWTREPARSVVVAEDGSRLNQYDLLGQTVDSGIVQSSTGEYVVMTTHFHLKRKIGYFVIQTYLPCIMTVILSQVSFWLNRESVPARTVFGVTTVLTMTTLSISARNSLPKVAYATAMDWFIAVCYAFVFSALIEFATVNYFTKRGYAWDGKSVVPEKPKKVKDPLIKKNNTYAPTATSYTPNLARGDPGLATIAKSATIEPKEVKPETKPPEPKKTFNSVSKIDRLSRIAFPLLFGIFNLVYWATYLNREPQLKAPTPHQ
Sequence of GABA-A receptor; alpha-1/beta-2/gamma-2 (P63138 whole entry, the tested form may be a part): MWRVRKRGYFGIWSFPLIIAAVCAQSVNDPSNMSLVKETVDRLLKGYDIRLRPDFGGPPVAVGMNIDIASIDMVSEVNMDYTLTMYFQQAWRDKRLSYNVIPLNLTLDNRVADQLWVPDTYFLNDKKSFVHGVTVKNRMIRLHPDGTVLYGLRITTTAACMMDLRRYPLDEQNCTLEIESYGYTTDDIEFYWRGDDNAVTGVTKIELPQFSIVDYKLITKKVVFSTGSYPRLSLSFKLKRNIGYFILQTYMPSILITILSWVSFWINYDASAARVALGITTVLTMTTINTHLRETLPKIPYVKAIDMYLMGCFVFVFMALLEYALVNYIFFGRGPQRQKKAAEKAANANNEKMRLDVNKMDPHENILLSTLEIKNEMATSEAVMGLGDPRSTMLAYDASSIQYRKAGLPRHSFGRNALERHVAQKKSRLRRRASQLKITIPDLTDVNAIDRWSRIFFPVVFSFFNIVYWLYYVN
Sequence of GABA-B receptor (Q9UBS5 whole entry): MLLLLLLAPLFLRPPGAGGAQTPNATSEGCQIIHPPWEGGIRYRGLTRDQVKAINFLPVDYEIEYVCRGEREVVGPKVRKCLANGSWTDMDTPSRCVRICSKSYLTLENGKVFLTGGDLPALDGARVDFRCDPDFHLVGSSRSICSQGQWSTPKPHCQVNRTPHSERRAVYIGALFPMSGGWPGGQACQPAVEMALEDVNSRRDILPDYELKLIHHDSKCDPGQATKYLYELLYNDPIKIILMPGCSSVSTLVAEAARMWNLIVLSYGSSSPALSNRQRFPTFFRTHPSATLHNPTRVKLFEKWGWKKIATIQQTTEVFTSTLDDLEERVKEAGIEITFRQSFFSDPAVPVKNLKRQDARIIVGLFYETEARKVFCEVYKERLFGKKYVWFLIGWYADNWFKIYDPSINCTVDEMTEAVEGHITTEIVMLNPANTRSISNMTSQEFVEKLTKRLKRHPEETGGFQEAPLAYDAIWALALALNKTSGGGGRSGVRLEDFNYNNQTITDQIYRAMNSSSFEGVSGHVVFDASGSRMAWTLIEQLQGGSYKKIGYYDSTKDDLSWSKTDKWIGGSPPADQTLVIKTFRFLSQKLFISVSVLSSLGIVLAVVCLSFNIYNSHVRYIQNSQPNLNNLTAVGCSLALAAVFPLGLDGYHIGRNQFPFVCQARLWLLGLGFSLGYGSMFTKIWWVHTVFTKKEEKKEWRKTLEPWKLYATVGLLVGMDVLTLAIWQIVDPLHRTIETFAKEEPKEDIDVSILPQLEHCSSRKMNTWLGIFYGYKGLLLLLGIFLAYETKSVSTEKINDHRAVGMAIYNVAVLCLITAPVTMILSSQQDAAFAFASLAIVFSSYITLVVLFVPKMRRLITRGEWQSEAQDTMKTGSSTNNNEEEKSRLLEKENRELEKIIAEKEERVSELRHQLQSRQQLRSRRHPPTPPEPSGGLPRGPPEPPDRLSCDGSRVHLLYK
Sequence of GABA-B receptor (O75899 whole entry): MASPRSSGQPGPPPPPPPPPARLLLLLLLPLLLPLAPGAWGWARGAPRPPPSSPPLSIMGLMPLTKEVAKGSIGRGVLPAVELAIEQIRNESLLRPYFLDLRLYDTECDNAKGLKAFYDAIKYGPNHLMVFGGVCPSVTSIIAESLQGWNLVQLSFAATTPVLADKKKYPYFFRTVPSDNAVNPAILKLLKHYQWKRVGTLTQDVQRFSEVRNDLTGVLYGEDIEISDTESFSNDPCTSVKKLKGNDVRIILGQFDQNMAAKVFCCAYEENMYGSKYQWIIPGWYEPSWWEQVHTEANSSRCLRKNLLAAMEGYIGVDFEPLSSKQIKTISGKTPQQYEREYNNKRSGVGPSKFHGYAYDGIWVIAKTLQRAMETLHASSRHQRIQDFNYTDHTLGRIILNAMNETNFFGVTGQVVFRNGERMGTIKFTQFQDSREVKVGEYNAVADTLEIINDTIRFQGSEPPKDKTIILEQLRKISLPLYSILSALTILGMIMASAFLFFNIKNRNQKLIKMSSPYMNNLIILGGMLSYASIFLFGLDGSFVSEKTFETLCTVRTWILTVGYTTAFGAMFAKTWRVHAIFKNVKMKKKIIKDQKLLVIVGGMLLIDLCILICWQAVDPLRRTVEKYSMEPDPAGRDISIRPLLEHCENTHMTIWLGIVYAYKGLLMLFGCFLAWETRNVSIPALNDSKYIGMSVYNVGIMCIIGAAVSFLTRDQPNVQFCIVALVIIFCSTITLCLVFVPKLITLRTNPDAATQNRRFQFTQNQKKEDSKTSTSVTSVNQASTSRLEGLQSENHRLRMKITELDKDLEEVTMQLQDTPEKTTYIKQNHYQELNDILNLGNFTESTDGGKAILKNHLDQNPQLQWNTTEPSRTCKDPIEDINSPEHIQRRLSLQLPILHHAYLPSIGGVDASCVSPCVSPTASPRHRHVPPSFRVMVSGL
Sequence of Muscarinic acetylcholine receptor M4 (Homo sapiens) (P08173 whole entry): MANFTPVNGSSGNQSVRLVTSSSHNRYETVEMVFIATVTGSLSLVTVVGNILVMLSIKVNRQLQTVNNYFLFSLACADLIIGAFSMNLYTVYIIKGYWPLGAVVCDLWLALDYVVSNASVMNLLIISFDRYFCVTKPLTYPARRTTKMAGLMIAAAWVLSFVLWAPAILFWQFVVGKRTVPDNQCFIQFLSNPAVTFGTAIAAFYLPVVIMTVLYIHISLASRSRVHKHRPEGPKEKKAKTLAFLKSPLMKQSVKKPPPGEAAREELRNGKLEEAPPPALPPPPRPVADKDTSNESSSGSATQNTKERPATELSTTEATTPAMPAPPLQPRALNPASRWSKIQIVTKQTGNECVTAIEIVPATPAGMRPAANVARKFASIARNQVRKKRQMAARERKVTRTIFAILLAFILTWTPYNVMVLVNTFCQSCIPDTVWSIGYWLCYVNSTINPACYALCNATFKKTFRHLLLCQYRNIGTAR
Sequence of 5-hydroxytryptamine receptor 1D (Homo sapiens) (P28221 whole entry): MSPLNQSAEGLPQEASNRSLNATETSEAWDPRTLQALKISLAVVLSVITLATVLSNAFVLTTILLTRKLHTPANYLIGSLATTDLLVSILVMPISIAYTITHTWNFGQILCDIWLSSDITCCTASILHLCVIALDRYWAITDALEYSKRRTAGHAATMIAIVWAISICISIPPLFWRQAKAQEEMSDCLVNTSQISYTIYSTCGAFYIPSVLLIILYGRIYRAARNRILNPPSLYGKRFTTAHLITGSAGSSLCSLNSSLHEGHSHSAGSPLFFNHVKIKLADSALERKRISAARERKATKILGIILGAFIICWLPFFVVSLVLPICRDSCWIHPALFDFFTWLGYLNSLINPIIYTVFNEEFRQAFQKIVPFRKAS
Sequence of Mu-type opioid receptor (Homo sapiens) (P35372 whole entry): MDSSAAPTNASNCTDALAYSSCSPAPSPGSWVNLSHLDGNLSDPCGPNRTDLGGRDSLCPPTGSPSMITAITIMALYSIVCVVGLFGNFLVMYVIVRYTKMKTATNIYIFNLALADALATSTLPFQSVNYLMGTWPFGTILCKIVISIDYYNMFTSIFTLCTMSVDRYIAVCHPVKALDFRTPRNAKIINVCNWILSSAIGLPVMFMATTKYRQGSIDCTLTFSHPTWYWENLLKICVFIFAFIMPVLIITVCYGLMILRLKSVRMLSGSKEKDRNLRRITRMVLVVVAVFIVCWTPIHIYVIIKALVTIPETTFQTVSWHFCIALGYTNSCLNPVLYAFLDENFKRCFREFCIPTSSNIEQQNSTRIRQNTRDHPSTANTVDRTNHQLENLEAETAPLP
Sequence of Alpha-2A adrenergic receptor (Homo sapiens) (P08913 whole entry): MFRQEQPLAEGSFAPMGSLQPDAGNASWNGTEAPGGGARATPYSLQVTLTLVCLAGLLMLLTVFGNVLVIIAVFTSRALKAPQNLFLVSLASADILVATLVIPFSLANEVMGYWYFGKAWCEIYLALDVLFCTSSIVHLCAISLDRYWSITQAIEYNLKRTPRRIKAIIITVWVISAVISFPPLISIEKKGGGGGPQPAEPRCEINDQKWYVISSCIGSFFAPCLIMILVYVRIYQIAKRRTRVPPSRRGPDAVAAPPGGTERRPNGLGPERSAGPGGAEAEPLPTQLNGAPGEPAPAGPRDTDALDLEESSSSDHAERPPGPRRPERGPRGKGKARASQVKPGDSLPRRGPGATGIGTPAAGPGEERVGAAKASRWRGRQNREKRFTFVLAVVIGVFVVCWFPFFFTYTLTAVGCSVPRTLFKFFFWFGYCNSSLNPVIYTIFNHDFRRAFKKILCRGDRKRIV

With `CC(C)(C)OC(=O)NC(c1ccccc1)C(F)(F)C(=O)c1ccc2ccccc2c1` (stereo unspecified) the inhibition [1] was < 30%, the inhibition [2] was < 30% and the inhibition [3] was < 30%. The inhibition [4] was < 30%, the inhibition [5] was < 30% and the inhibition [6] was < 30%. The inhibition [7] was < 30%, the inhibition [8] was < 30% and the inhibition [9] was < 30%. The inhibition [10] was < 30%, the inhibition [11] was < 30% and the inhibition [12] was < 30%. The inhibition [13] was < 30%, the inhibition [14] was < 30% and the inhibition [15] was < 30%. For the same compound, the inhibition [16] was < 30%, the inhibition [17] was < 30% and the inhibition [18] was < 30%. The inhibition [19] was < 30%, the inhibition [20] was < 30% and the inhibition [21] was < 30%. The inhibition [22] was < 30%, the inhibition [23] was < 30% and the inhibition [24] was < 30%. For the same compound, the inhibition [25] was < 30%, the inhibition [26] was < 30% and the inhibition [27] was < 30%. For the same compound, the inhibition [28] was < 30%, the inhibition [29] was < 30% and the inhibition [30] was < 30%. For the same compound, the inhibition [31] was < 30%, the inhibition [32] was < 30% and the inhibition [33] was < 30%. The inhibition [34] was < 30%, the EC50 [35] was > 100 µM and the EC50 (GABA-B receptor) was 19.4 µM. The inhibition [36] was < 30%, the inhibition [37] was < 30% and the inhibition [38] was < 30%. The inhibition [39] was < 30%, the inhibition [40] was < 30% and the inhibition [41] was < 30%.
For `O=C(C12CC3CC(CC(C3)C1)C2)C(F)(F)C(O)c1ccc(Cl)cc1` (stereo unspecified), the Activity (HEK293) was “Toxic” and the EC50 (GABA-B receptor) was > 100 µM.
With `C/C=C/C=C/C(NCc1ccccc1)C(F)(F)C(=O)c1ccc2ccccc2c1` (stereo unspecified) the EC50 (GABA-B receptor) was > 100 µM.
With `O=C(C12CC3CC(CC(C3)C1)C2)C(F)(F)C(O)/C=C/c1ccccc1` (stereo unspecified) the EC50 [35] was > 100 µM.
With `O=C(c1ccc(Cl)cc1)C(F)(F)C(NCc1ccccc1)c1ccccc1` (stereo unspecified) the EC50 [35] was > 100 µM and the EC50 (GABA-B receptor) was 57.4 µM.
For `O=C1c2ccccc2C(=O)N1CC(O)C(F)(F)C(=O)C12CC3CC(CC(C3)C1)C2` (stereo unspecified), the EC50 (GABA-B receptor) was > 100 µM.
`CC(=O)c1ccc(C(O)C(F)(F)C(=O)c2ccccn2)cc1` (stereo unspecified) was tested, and the EC50 (GABA-B receptor) was > 100 µM.
`CCc1ccc(C(O)C(F)(F)C(=O)C23CC4CC(CC(C4)C2)C3)cc1` (stereo unspecified) was tested, and the Activity (HEK293) was “Toxic” and the EC50 (GABA-B receptor) was > 100 µM.
In the case of `O=C(C12CC3CC(CC(C3)C1)C2)C(F)(F)C(NS(=O)(=O)c1ccccc1)c1ccccc1` (stereo unspecified), the EC50 (GABA-B receptor) is reported as > 100 µM.
With `CC(C)(C)OC(=O)NC(c1ccccc1)C(F)(F)C(=O)c1ccc2c(c1)OCO2` (stereo unspecified) the EC50 (GABA-B receptor) was > 100 µM.
With `CC(=O)c1ccc(C(O)C(F)(F)C(=O)C23CC4CC(CC(C4)C2)C3)cc1` (stereo unspecified) the inhibition [1] was < 30%, the inhibition [2] was < 30% and the inhibition [3] was < 30%. The inhibition [4] was < 30%, the inhibition [5] was < 30% and the inhibition [6] was < 30%. The inhibition [7] was < 30%, the inhibition [8] was < 30% and the inhibition [9] was < 30%. The inhibition [10] was < 30%, the inhibition [11] was < 30% and the inhibition [12] was < 30%. The inhibition [13] was < 30%, the inhibition [14] was < 30% and the inhibition [15] was < 30%. The inhibition [16] was < 30%, the inhibition [17] was < 30% and the inhibition [18] was < 30%. For the same compound, the inhibition [19] was < 30%, the inhibition [20] was < 30% and the inhibition [21] was < 30%. The inhibition [22] was < 30%, the inhibition [23] was < 30% and the inhibition [24] was < 30%. The inhibition [25] was < 30%, the inhibition [26] was < 30% and the inhibition [27] was < 30%. For the same compound, the inhibition [28] was < 30%, the inhibition [29] was < 30% and the inhibition [30] was < 30%. For the same compound, the inhibition [31] was < 30%, the inhibition [32] was < 30% and the inhibition [33] was < 30%. The inhibition [34] was < 30%, the inhibition [36] was < 30% and the inhibition [37] was < 30%. For the same compound, the inhibition [38] was < 30%, the inhibition [39] was < 30% and the inhibition [40] was < 30%. The inhibition [41] was < 30%.
With `O=C(c1ccc2ccccc2c1)C(F)(F)C(NS(=O)(=O)c1ccccc1)c1ccccc1` (stereo unspecified) the EC50 [35] was > 100 µM and the EC50 (GABA-B receptor) was 32.7 µM.
With `O=C(c1ccc2ccccc2c1)C(F)(F)C(NCc1ccccc1)c1ccccc1` (stereo unspecified) the EC50 [35] was > 100 µM and the EC50 (GABA-B receptor) was 91 µM.
For `CC(C)CC(=O)C(F)(F)C(NC(=O)OC(C)(C)C)c1ccccc1` (stereo unspecified), the EC50 (GABA-B receptor) was > 100 µM.
For `O=C(C12CC3CC(CC(C3)C1)C2)C(F)(F)C(O)c1ccccc1` (stereo unspecified), the Activity (HEK293) was “Toxic” and the EC50 (GABA-B receptor) was > 100 µM.
